These results are taken from patent US10981917B2, “Heterocyclic compound, its preparation method, and pharmaceutical composition comprising the same” (Daewoong Pharmaceutical Co., Ltd., priority 2017, dated 2021).

A value given as a limit tells only on which side of the number the result lay.

This assay deals with PRS (prolyl-tRNA synthetase) protein, PRS portion of EPRS (Homo sapiens (Human), UniProt P07814). Description: PRS enzyme activity inhibition experiment ([3H]proline, liquid scintillation). The class given is biochemical. The following applies: purified PRS protein, 37° C. for 5 to 10 minutes. The protocol: In order to confirm the biological activities of the compounds prepared in Examples, % inhibition or IC50 values of PRS enzyme ([…]) activities were calculated.
Sequence of PRS (prolyl-tRNA synthetase) protein, PRS portion of EPRS (P07814 1007-1512): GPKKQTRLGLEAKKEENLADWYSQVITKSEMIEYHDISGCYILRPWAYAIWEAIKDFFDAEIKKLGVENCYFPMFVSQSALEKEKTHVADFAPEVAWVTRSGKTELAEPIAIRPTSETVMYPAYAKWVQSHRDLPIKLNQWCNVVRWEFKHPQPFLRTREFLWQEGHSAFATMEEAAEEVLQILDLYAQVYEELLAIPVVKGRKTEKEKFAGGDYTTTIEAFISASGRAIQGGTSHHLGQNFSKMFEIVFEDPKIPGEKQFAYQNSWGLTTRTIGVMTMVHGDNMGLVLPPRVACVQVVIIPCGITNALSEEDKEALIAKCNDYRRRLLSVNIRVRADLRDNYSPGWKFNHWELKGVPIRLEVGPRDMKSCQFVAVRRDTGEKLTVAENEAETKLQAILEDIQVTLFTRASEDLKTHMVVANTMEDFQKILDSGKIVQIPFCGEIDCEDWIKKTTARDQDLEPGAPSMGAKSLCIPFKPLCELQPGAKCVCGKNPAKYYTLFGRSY
Specifically, the portion corresponding to PRS in cDNA of EPRS was subcloned, and the obtained high-purity PRS protein was purified and used in the experiment. The compounds (1 μM) prepared in Examples were added into the reaction buffer (20 mM KPO4 (pH 7.4), 6 mM MgAc, 5 mM ATP, […] tRNA, 0.5 mM DTT, […][^3H]proline (1 mCi/mL)) and allowed to react at 37° C. for 5 to 10 minutes. The reaction was terminated with 3M paper that was in advance dried by addition of 5% TCA. The radioactivity was measured using a liquid scintillation counter.
% Inhibition and IC50 values of the respective compounds were calculated and analyzed using Microsoft Excel or Sigma Plot 8.0. In Tables 1 to 3, the results are divided into A, B and C according to the range of IC50. The case where the derived IC50 is 100 nM or less is represented by “A”, the case where the IC50 is 100 to 500 nM is represented by “B”, and the case where the IC50 is 500 nM or higher is represented by “C”.
The compound `O[C@H]1CCCN[C@@H]1/C=C/Cn1cnc2c(Cl)c(Br)cnc21` [Example 187, (2R,3S)-2-((E)-3-(6-bromo-7-chloro-3H-imidazo[4,5-b]pyridin-3-yl)prop-1l-en-1-yl)piperidin-3-ol] displayed an IC50 of at most 100 nM.
Then `Cc1c(F)ccc2c1ncn2CC#C[C@H]1NCCC[C@@H]1O` [Example 229, (2R,3S)-2-(3-(5-fluoro-4-methyl-1H-benzo[d]imidazol-1-yl)prop-1-yn-1-yl)piperidin-3-ol], with at least 500 nM; and `O[C@H]1CCCN[C@@H]1CCCn1cnc2c(N3CCCCC3)ncnc21` [Example 141, (2R,3S)-2-(3-(6-(piperidin-1-yl)-9H-purin-9-yl)propyl)piperidin-3-ol], with at least 500 nM.
With `Cc1ncc(-c2cc(Cl)cc3ncn(CCC[C@H]4NCCC[C@@H]4O)c23)s1` [Example 85, (2R,3S)-2-(3-(5-chloro-7-(2-methylthiazol-5-yl)-1H-benzo[d]imidazol-1-yl)propyl)piperidin-3-ol], the IC50 lay in the range of 100 to 500 nM.
`N#Cc1nc(-c2cc(Cl)cc3ncn(CCC[C@H]4NCCC[C@@H]4O)c23)cs1` [Example 105, 4-(5-chloro-1-(3-((2R,3S)-3-hydroxypiperidin-2-yl)propyl)-1H-benzo[d]imidazol-7-yl)thiazole-2-carbonitrile]: the 50% inhibitory concentration (IC50) was at least 500 nM.
As to `O[C@H]1CCCN[C@@H]1CCCn1cnc2ccc(-c3cn[nH]c3)cc21` [Example 30, (2R,3S)-2-(3-(6-(1H-pyrazol-4-yl)-1H-benzo[d]imidazol-1-yl)propyl)piperidin-3-ol], the IC50 lay in the range of 100 to 500 nM.
The same measure for `O[C@H]1CCCN[C@@H]1CCCn1cnc2cc(F)c(F)cc21` [Example 52, (2R,3S)-2-(3-(5,6-difluoro-1H-benzo[d]imidazol-1-yl)propyl)piperidin-3-ol]: 100 to 500 nM; for `O[C@H]1CCCN[C@@H]1CCCn1cnc2cc(Br)ncc21` [Example 125, (2R,3S)-2-(3-(6-bromo-3H-imidazo[4,5-c]pyridin-3-yl)propyl)piperidin-3-ol]: at least 500 nM; for `O[C@H]1CCCN[C@@H]1CCCn1cnc2c(Cl)c(Br)cnc21` [Example 133, (2R,3S)-2-(3-(6-bromo-7-chloro-3H-imidazo[4,5-b]pyridin-3-yl)propyl)piperidin-3-ol]: at least 500 nM.
Then `Cc1c(Cl)ccc2c1ncn2CCC[C@H]1NCCC[C@@H]1O` [Example 46, (2R,3S)-2-(3-(5-chloro-4-methyl-1H-benzo[d]imidazol-1-yl)propyl)piperidin-3-ol], with at most 100 nM; and `O=[N+]([O-])c1c(Br)ccc2ncn(CCC[C@H]3NCCC[C@@H]3O)c12` [Example 76, (2R,3S)-2-(3-(6-bromo-7-nitro-1H-benzo[d]imidazol-1-yl)propyl)piperidin-3-ol], with at least 500 nM; and `O[C@H]1CCCN[C@@H]1CCCn1cnc2ccc(C(F)(F)F)cc21` [Example 15, (2R,3S)-2-(3-(6-(trifluoromethyl)-1H-benzo[d]imidazol-1-yl)propyl)piperidin-3-ol], with 100 to 500 nM.
The same measure for `Cc1c(Cl)ccc2c1ncn2CC#C[C@H]1NCCC[C@@H]1O` [Example 227, (2R,3S)-2-(3-(5-chloro-4-methyl-1H-benzo[d]imidazol-1-yl)prop-1-yn-1-yl)piperidin-3-ol]: at least 500 nM; for `O[C@H]1CCCN[C@@H]1/C=C/Cn1cnc2c(Cl)c(-c3cccc(Cl)c3)cnc21` [Example 185, (2R,3S)-2-((E)-3-(7-chloro-6-(3-chlorophenyl)-3H-imidazo[4,5-b]pyridin-3-yl)prop-1-en-1-yl)piperidin-3-ol]: at least 500 nM.
Compound `O[C@H]1CCCN[C@@H]1CCCn1cnc2c(Br)cccc21` [Example 2, (2R,3S)-2-(3-(4-bromo-1H-benzo[d]imidazol-1-yl)propyl)piperidin-3-ol] showed an IC50 of 100 to 500 nM.
Then `O[C@H]1CCCN[C@@H]1CCCn1cnc2cnc(Cl)cc21` [Example 122, (2R,3S)-2-(3-(6-chloro-1H-imidazo[4,5-c]pyridin-1-yl)propyl)piperidin-3-ol], with 100 to 500 nM; and `O=[N+]([O-])c1c(Br)ccc2ncn(C/C=C/[C@H]3NCCC[C@@H]3O)c12` [Example 177, (2R,3S)-2-((E)-3-(6-bromo-7-nitro-1H-benzo[d]imidazol-1-yl)prop-1-en-1-yl)piperidin-3-ol], with at least 500 nM; and `O[C@H]1CCCN[C@@H]1C#CCn1cnc2cc(Br)c(Br)cc21` [Example 228, (2R,3S)-2-(3-(5,6-dibromo-1H-benzo[d]imidazol-1-yl)prop-1-yn-1-yl)piperidin-3-ol], with at least 500 nM.
The compound `O[C@H]1CCCN[C@@H]1CCCn1cnc2cc(Cl)cc(-c3cnn(CCF)c3)c21` [Example 112, (2R,3S)-2-(3-(5-chloro-7-(1-(2-fluoroethyl)-1H-pyrazol-4-yl)-1H-benzo[d]imidazol-1-yl)propyl)piperidin-3-ol] had an IC50 of 100 to 500 nM.
`CCN(C)c1ncnc2c1ncn2CCC[C@H]1NCCC[C@@H]1O` [Example 139, (2R,3S)-2-(3-(6-(ethyl(methyl)amino)-9H-purin-9-yl)propyl)piperidin-3-ol] returned an IC50 of at least 500 nM.
For `O[C@H]1CCCN[C@@H]1CCCn1cnc2c(Cl)cccc21` [Example 10, (2R,3S)-2-(3-(4-chloro-1H-benzo[d]imidazol-1-yl)propyl)piperidin-3-ol], the 50% inhibitory concentration (IC50) was in the range of 100 to 500 nM.
The same measure for `COc1ccc2ncn(CCC[C@H]3NCCC[C@@H]3O)c2c1Cl` [Example 60, (2R,3S)-2-(3-(7-chloro-6-methoxy-1H-benzo[d]imidazol-1-yl)propyl)piperidin-3-ol]: 100 to 500 nM; for `O[C@H]1CCCN[C@@H]1CCCn1cnc2cc(Cl)cc(-c3cnn(-c4nccs4)c3)c21` [Example 101, (2R,3S)-2-(3-(5-chloro-7-(1-(thiazol-2-yl)-1H-pyrazol-4-yl)-1H-benzo[d]imidazol-1-yl)propyl)piperidin-3-ol]: at most 100 nM; for `O[C@H]1CCCN[C@@H]1CCCn1cnc2c(F)c(F)ccc21` [Example 49, (2R,3S)-2-(3-(4,5-difluoro-1H-benzo[d]imidazol-1-yl)propyl)piperidin-3-ol]: 100 to 500 nM.
Then `Cc1ccc2c(ncn2C/C=C/[C@H]2NCCC[C@@H]2O)c1C` [Example 172, (2R,3S)-2-((E)-3-(4,5-dimethyl-1H-benzo[d]imidazol-1-yl)prop-1-en-1-yl)piperidin-3-ol], with at least 500 nM; and `O[C@H]1CCCN[C@@H]1/C=C/Cn1cnc2ccc(-c3cccc(F)c3)cc21` [Example 191, (2R,3S)-2-((E)-3-(6-(3-fluorophenyl)-1H-benzo[d]imidazol-1-yl)prop-1-en-1-yl)piperidin-3-ol], with 100 to 500 nM; and `Cc1cc2ncn(CCC[C@H]3NCCC[C@@H]3O)c2cc1C` [Example 55, (2R,3S)-2-(3-(5,6-dimethyl-1H-benzo[d]imidazol-1-yl)propyl)piperidin-3-ol], with at least 500 nM.
`O[C@H]1CCCN[C@@H]1CCCn1cnc2c(F)ccc(Cl)c21` [Example 74, (2R,3S)-2-(3-(7-chloro-4-fluoro-1H-benzo[d]imidazol-1-yl)propyl)piperidin-3-ol] gave an IC50 of 100 to 500 nM.
The compound `O[C@H]1CCCN[C@@H]1CCCn1cnc2ccc(-c3ccc(F)cc3)cc21` [Example 25, (2R,3S)-2-(3-(6-(4-fluorophenyl)-1H-benzo[d]imidazol-1-yl)propyl)piperidin-3-ol] yielded a half-inhibitory concentration (IC50) of at least 500 nM.
